Measured values: US9302999B2, “Substituted triazoles as herbicides” (E. I. DU PONT DE NEMOURS AND COMPANY, priority 2012, dated 2016)

Columns and labels:
Type in all cases: in vivo
[1] = tested on: barnyardgrass (Echinochloa crus-galli); test: Test A pre-/postemergence: barnyardgrass; details: for Barnyardgrass plant response rating: Postemergence; for Plant response rating, Barnyardgrass: Preemergence
Method in brief: (§1)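 Seeds were sown in loam/sand blend and sprayed preemergence (directed soil spray) and, simultaneously, postemergence at 2–10 cm, one- to two-leaf stage, using compounds in non-phytotoxic solvent with surfactant. After ~10 days in greenhouse, injury was rated visually versus untreated controls, 0 (no effect) to 100 (complete control).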

[2] = tested on: crabgrass, large (large crabgrass, Digitaria sanguinalis); test: Test A pre-/postemergence: crabgrass, large; details: for Crabgrass, Large plant response rating: Postemergence; for Plant response rating, Crabgrass, Large: Preemergence
Method in brief: as §1

[3] = tested on: foxtail, giant (giant foxtail, Setaria faberii); test: Test A pre-/postemergence: foxtail, giant; details: for Foxtail, Giant plant response rating: Postemergence; for Plant response rating, Foxtail, Giant: Preemergence
Method in brief: as §1

[4] = tested on: morningglory (Ipomoea spp.); test: Test A pre-/postemergence: morningglory; details: for Morningglory plant response rating: Postemergence; for Plant response rating, Morningglory: Preemergence
Method in brief: as §1

[5] = tested on: pigweed (Amaranthus retroflexus); test: Test A pre-/postemergence: pigweed; details: for Pigweed plant response rating: Postemergence; for Plant response rating, Pigweed: Preemergence
Method in brief: as §1

[6] = tested on: velvetleaf (Abutilon theophrasti); test: Test A pre-/postemergence: velvetleaf; details: for Velvetleaf plant response rating: Postemergence; for Plant response rating, Velvetleaf: Preemergence
Method in brief: as §1

[7] = tested on: wheat (Triticum aestivum); test: Test A pre-/postemergence: wheat; details: for Wheat plant response rating: Postemergence; for Plant response rating, Wheat: Preemergence
Method in brief: as §1

[8] = tested on: corn (Zea mays); test: Test A pre-/postemergence: corn; details: for Corn plant response rating: Postemergence; for Plant response rating, Corn: Preemergence
Method in brief: as §1

[9] = tested on: rice (Oryza sativa); test: Test C flooded paddy test: rice; details: scale 0 to 100 (0 no effect, 100 complete control)
Source text: (§2) Plant species in the flooded paddy test consisted of rice (Oryza sativa), sedge, umbrella (small-flower umbrella sedge, Cyperus difformis), ducksalad (Heteranthera limosa) and barnyardgrass (Echinochloa crus-galli) grown to the 2-leaf stage for testing. At time of treatment, test pots were flooded to 3 cm above the soil surface, treated by application of test compounds directly to the paddy water, and then maintained at that water depth for the duration of the test.
(§3) Treated plants and controls were maintained in a greenhouse for 13 to 15 days, after which time all species were compared to controls and visually evaluated. Plant response ratings, summarized in Table C, are based on a scale of 0 to 100 where 0 is no effect and 100 is complete control. A dash (-) response means no test result.

[10] = tested on: sedge, umbrella (small-flower umbrella sedge, Cyperus difformis); test: Test C flooded paddy test: sedge, umbrella; details: scale 0 to 100 (0 no effect, 100 complete control)
Source text: as §2, §3

[11] = tested on: ducksalad (Heteranthera limosa); test: Test C flooded paddy test: ducksalad; details: scale 0 to 100 (0 no effect, 100 complete control)
Source text: as §2, §3

[12] = tested on: barnyardgrass (Echinochloa crus-galli); test: Test C flooded paddy test: barnyardgrass; details: scale 0 to 100 (0 no effect, 100 complete control)
Source text: as §2, §3

[13] = 125 g ai/ha, 0 to 100 scale, 0 is no effect, 100 is complete control
[14] = 500 g ai/ha, visual rating on 0 to 100 scale (0 no effect, 100 complete control), approximately ten days
[15] = 125 g ai/ha, 0 to 100 scale (0 no effect, 100 complete control)
[16] = 500 g ai/ha, 0 to 100 scale, 0 is no effect, 100 is complete control
[17] = Flood (flooded paddy test), 62 g ai/ha, visual rating after 13 to 15 days
[18] = Flood (flooded paddy test), 125 g ai/ha, visual rating after 13 to 15 days
[19] = Flood (flooded paddy test), 250 g ai/ha, visual rating after 13 to 15 days

## Cc1nn(-c2ccc(F)cc2)nc1Cc1ccnc(OCC(F)(F)F)c1 [Compound 33]
[1]; [13]
  Barnyardgrass plant response rating: 0
[1]; [14]
  Barnyardgrass plant response rating: 0
[1]; [15]
  Plant response rating, Barnyardgrass: 0
[1]; [16]
  Plant response rating, Barnyardgrass: 0
[2]; [13]
  Crabgrass, Large plant response rating: 0
[2]; [14]
  Crabgrass, Large plant response rating: 10
[2]; [15]
  Plant response rating, Crabgrass, Large: 0
[2]; [16]
  Plant response rating, Crabgrass, Large: 10
[3]; [13]
  Foxtail, Giant plant response rating: 0
[3]; [14]
  Foxtail, Giant plant response rating: 10
[3]; [15]
  Plant response rating, Foxtail, Giant: 0
[3]; [16]
  Plant response rating, Foxtail, Giant: 0
[4]; [13]
  Morningglory plant response rating: 0
[4]; [14]
  Morningglory plant response rating: 10
[4]; [15]
  Plant response rating, Morningglory: 0
[4]; [16]
  Plant response rating, Morningglory: 0
[5]; [13]
  Pigweed plant response rating: 10
[5]; [14]
  Pigweed plant response rating: 50
[5]; [15]
  Plant response rating, Pigweed: 0
[5]; [16]
  Plant response rating, Pigweed: 0
[6]; [13]
  Velvetleaf plant response rating: 0
[6]; [14]
  Velvetleaf plant response rating: 0
[6]; [15]
  Plant response rating, Velvetleaf: 0
[6]; [16]
  Plant response rating, Velvetleaf: 0
[7]; [13]
  Wheat plant response rating: 0
[7]; [14]
  Wheat plant response rating: 0
[7]; [15]
  Plant response rating, Wheat: 0
[7]; [16]
  Plant response rating, Wheat: 0
[8]; [13]
  Corn plant response rating: 0
[8]; [14]
  Corn plant response rating: 10
[8]; [15]
  Plant response rating, Corn: 0
[8]; [16]
  Plant response rating, Corn: 0
[9]; [17]
  Plant response rating, Rice: 0
[9]; [18]
  Plant response rating, Rice: 0
[9]; [19]
  Plant response rating, Rice: 0
[9]; Flood, 31 g ai/ha
  Plant response rating, Rice: 0
[10]; [17]
  Plant response rating, Sedge, Umbrella: 0
[10]; [18]
  Plant response rating, Sedge, Umbrella: 0
[10]; [19]
  Plant response rating, Sedge, Umbrella: 0
[10]; Flood, 31 g ai/ha
  Plant response rating, Sedge, Umbrella: 0
[11]; [17]
  Plant response rating, Ducksalad: 0
[11]; [18]
  Plant response rating, Ducksalad: 0
[11]; [19]
  Plant response rating, Ducksalad: 0
[11]; Flood, 31 g ai/ha
  Plant response rating, Ducksalad: 0
[12]; [17]
  Plant response rating, Barnyardgrass: 0
[12]; [18]
  Plant response rating, Barnyardgrass: 0
[12]; [19]
  Plant response rating, Barnyardgrass: 0
[12]; Flood, 31 g ai/ha
  Plant response rating, Barnyardgrass: 0

## Cc1nn(-c2cccc(C(F)(F)F)c2)nc1Oc1ccnc(C(F)(F)F)c1 [Compound 40]
[1]; [13]
  Barnyardgrass plant response rating: 30
[1]; [14]
  Barnyardgrass plant response rating: 40
[1]; [15]
  Plant response rating, Barnyardgrass: 30
[1]; [16]
  Plant response rating, Barnyardgrass: 80
[2]; [13]
  Crabgrass, Large plant response rating: 80
[2]; [14]
  Crabgrass, Large plant response rating: 90
[2]; [15]
  Plant response rating, Crabgrass, Large: 100
[2]; [16]
  Plant response rating, Crabgrass, Large: 100
[3]; [13]
  Foxtail, Giant plant response rating: 60
[3]; [14]
  Foxtail, Giant plant response rating: 90
[3]; [15]
  Plant response rating, Foxtail, Giant: 100
[3]; [16]
  Plant response rating, Foxtail, Giant: 100
[4]; [13]
  Morningglory plant response rating: 70
[4]; [14]
  Morningglory plant response rating: 100
[4]; [15]
  Plant response rating, Morningglory: 0
[4]; [16]
  Plant response rating, Morningglory: 10
[5]; [13]
  Pigweed plant response rating: 100
[5]; [14]
  Pigweed plant response rating: 100
[5]; [15]
  Plant response rating, Pigweed: 90
[5]; [16]
  Plant response rating, Pigweed: 100
[6]; [13]
  Velvetleaf plant response rating: 70
[6]; [14]
  Velvetleaf plant response rating: 100
[6]; [15]
  Plant response rating, Velvetleaf: 10
[6]; [16]
  Plant response rating, Velvetleaf: 20
[7]; [13]
  Wheat plant response rating: 20
[7]; [14]
  Wheat plant response rating: 30
[7]; [15]
  Plant response rating, Wheat: 0
[7]; [16]
  Plant response rating, Wheat: 20
[8]; [13]
  Corn plant response rating: 10
[8]; [14]
  Corn plant response rating: 30
[8]; [15]
  Plant response rating, Corn: 0
[8]; [16]
  Plant response rating, Corn: 10
[9]; [17]
  Plant response rating, Rice: 10
[9]; [18]
  Plant response rating, Rice: 20
[9]; [19]
  Plant response rating, Rice: 25
[9]; Flood, 31 g ai/ha
  Plant response rating, Rice: 0
[10]; [17]
  Plant response rating, Sedge, Umbrella: 75
[10]; [18]
  Plant response rating, Sedge, Umbrella: 80
[10]; [19]
  Plant response rating, Sedge, Umbrella: 80
[10]; Flood, 31 g ai/ha
  Plant response rating, Sedge, Umbrella: 70
[11]; [17]
  Plant response rating, Ducksalad: 30
[11]; [18]
  Plant response rating, Ducksalad: 60
[11]; [19]
  Plant response rating, Ducksalad: 70
[11]; Flood, 31 g ai/ha
  Plant response rating, Ducksalad: 30
[12]; [17]
  Plant response rating, Barnyardgrass: 20
[12]; [18]
  Plant response rating, Barnyardgrass: 30
[12]; [19]
  Plant response rating, Barnyardgrass: 30
[12]; Flood, 31 g ai/ha
  Plant response rating, Barnyardgrass: 20
